Tests used:
[1] = test system: B. subtilis (MTCC121); test: Bioactivity enhancement of antibiotics (killing, broth/titre assay) against B. subtilis; assay type: cell-based, Bacillus subtilis; conditions: Table 5
[2] = test system: E. coli (CA8000); test: Bioactivity enhancement of antibiotics (killing, broth/titre assay) against E. coli
[3] = test system: M. smegmatis (MC^2 155); test: Bioactivity enhancement of antibiotics (killing, broth/titre assay) against M. smegmatis; assay type: cell-based, Mycobacterium smegmatis; conditions: Table 5
[4] = test system: C. albicans; test: Enhancement of anticandidial activity of clotrimazole, broth assay
[5] = test system: E. coli DH5α; test: Enhancement of bacterial transformation with pUC18 plasmid DNA, DH5α
Experimental: (§1) Overnight grown bacterial E. coli DH5α (Sambrook at al^28) cells were diluted to 10 folds in growth medium and treated with niaziridin @1-10 μg/ml for 4 hours at 37° C. in a shaker (200 RPM).
(§2) These log phase cells were then treated with calcium chloride to induce competence and then transformed with pUC18 plasmid DNA and plated on Luria agar plates containing 100 μg/ml ampicillin.

[6] = test system: E. coli cells (CA 8000), λ phage; test: λ phage adsorption on E. coli cells; conditions: Cells pretreated with niaziridin @ 1 ug/ml
Experimental: Overnight grown bacterial culture (Escherichia coli, CA 8000) was divided into 5 ml of aliquot each in screw cap tubes. One of the tube with the bacterial culture was treated with niaziridin to a final concentration of 1 μg/ml. Both the control and the treated tubes were incubated at 37° C. for 4 hours. The cultures were then infected with λ phage (MOI=10) for 10 minutes at 37° C. (for adsorption) followed by centrifugation at 10000 RPM for 10 minutes at 4° C.
The supernatant and the pellets for both treated and untreated cultures were then compared for the phage titer by plating on top agar containing sensitive bacteria at different dilutions.

[7] = Bioavailability test using gastro-intestinal epithelium (U-tube); assay type: in vitro ADME, goat; conditions: in combination; FIG. 3
Excerpt: Specially designed U-tubes of glass consisting of two components (opposite-L type) were used in which one open end of an L-shaped was tapered to fit within the end of the other L-tube (as described in U.S. Pat. No. 6,410,059). The membrane of goat gut (initial part) was stretched and fixed to act as the barrier between the two ends such that by joining the two L-tubes, a U-tube was made. Sterile distilled water was then filled in both the sides to equal height/level. The antibiotic/compound was added to the donor tube (tapered) and through spectro-photometer, the transfer of molecule was observed using UV and visible absorption maxima of the respective molecules by taking the OD at defined wavelengths (264 nm for isoniazid).

[8] = test system: M.tuberculosis H37Rv (ATCC 27294); test: Bioactivity enhancement of anti-tubercular drugs, radiometric BACTEC 460 TB system; assay type: cell-based, Mycobacterium tuberculosis; conditions: BACTEC 460, 12 days
[9] = test system: E. coli CA8000; test: Enhancement of bacterial transformation with pUC18 plasmid DNA, CA8000
Experimental: as §1, §2

[10] = anaesthetized rat, 1-10 mg/kg I.V; cited from earlier work
[11] = human volunteers; formulation containing rifampicin, pyrazinamide and isoniazid; cited from earlier work
[12] = Amp (0.01) + Niaziridin 1.0 μg/ml
[13] = Nal (2.0) + Niaziridin 1.0 μg/ml
[14] = Rif (0.05) + Niaziridin 1.0 μg/ml
[15] = Tet (1.0) + Niaziridin 1.0 μg/ml
[16] = Table 4, Amp 6 μg/ml + Niaziridin 0.1 μg/ml
[17] = Table 4, Nal 6 μg/ml + Niaziridin 0.1 μg/ml
[18] = Table 4, Rif 20 μg/ml + Niaziridin 0.1 μg/ml
[19] = Table 4, Rif 30 μg/ml + Niaziridin 0.1 μg/ml
[20] = Table 4, Tet 1 μg/ml + Niaziridin 0.1 μg/ml
[21] = Table 4, Tet 2 μg/ml + Niaziridin 0.1 μg/ml
[22] = Cells pretreated with niaziridin at 1 ug/ml
[23] = Cells pretreated with niaziridin at 10 ug/ml
[24] = Amp (0.1) + Niaziridin 1.0 μg/ml
[25] = Nal (1.0) + Niaziridin 1.0 μg/ml
[26] = Tet (2.0) + Niaziridin 1.0 μg/ml

In the case of `CC1(C)S[C@@H]2[C@H](NC(=O)[C@H](N)c3ccccc3)C(=O)N2[C@H]1C(=O)O` [Amp, ampicillin, reference compound], the “% Survival” value ([1]; Amp (0.01) alone) was 72.5%, the Titre ([1]; Amp (0.01) alone) was 2.9 × 10^8 and the “% Survival” value ([2]; Table 4, Amp 6 μg/ml alone) was 3.69%. The Titre ([2]; Table 4, Amp 6 μg/ml alone) was 8.5 × 10^6, the “% Survival” value ([3]; Amp (0.1) alone) was 25.0% and the Titre ([3]; Amp (0.1) alone) was 1.0 × 10^8.
With `Clc1ccccc1C(c1ccccc1)(c1ccccc1)n1ccnc1` [Clotrimazole, clotrimazole, reference compound] the “Cfu/ml at 36 h” value ([4]; Clotrimazole alone 0.5 ug/ml) was 23.6 × 10^5 Cfu/ml.
With `CCn1cc(C(=O)O)c(=O)c2ccc(C)nc21` [Nal, nalidixic acid, reference compound] the “% Survival” value ([1]; Nal (2.0) alone) was 7.75%, the Titre ([1]; Nal (2.0) alone) was 3.1 × 10^7 and the “% Survival” value ([2]; Table 4, Nal 6 μg/ml alone) was 1.0%. For the same molecule, the Titre ([2]; Table 4, Nal 6 μg/ml alone) was 6.0 × 10^6, the “% Survival” value ([3]; Nal (1.0) alone) was 92.5% and the Titre ([3]; Nal (1.0) alone) was 3.7 × 10^8.
For `CC1OC(Oc2ccc(CC#N)cc2O)C(O)C(O)C1O` (centres unmarked) [Niaziridin, NIAZIRIDIN], the “% Survival” value [1, 12] was 14.2%, the “Folds enhancement in killing” value [1, 12] was 5.1 folds and the Titre [1, 12] was 5.7 × 10^7. The “% Survival” value [1, 13] was 1.1%, the “Folds enhancement in killing” value [1, 13] was 7.0 folds and the Titre [1, 13] was 4.6 × 10^6. For the same molecule, the “% Survival” value [1, 14] was 2.7%, the “Folds enhancement in killing” value [1, 14] was 19.4 folds and the Titre [1, 14] was 1.1 × 10^7. The “% Survival” value [1, 15] was 5.0%, the “Folds enhancement in killing” value [1, 15] was 3.5 folds and the Titre [1, 15] was 2.0 × 10^7. The “Enhancement of activity of rifampicin, ampicillin, nalidixic acid” value ([1]; range over both Gram (+) strains (B. subtilis and M. smegmatis)) was 1.2-19 folds, the “% Survival” value [2, 16] was 0.69% and the “Fold enhancement in killing over antibiotic alone” value (from here on “Fold enhancement in killing”) [2, 16] was 5.3 fold. For the same molecule, the Titre [2, 16] was 1.6 × 10^6, the “% Survival” value [2, 17] was 0.02% and the “Fold enhancement in killing” value [2, 17] was 50.0 fold. The Titre [2, 17] was 1.2 × 10^5, the “% Survival” value [2, 18] was 0.0035% and the “Fold enhancement in killing” value [2, 18] was 38.8 fold. For the same molecule, the Titre [2, 18] was 3.9 × 10^3, the “% Survival” value [2, 19] was 0.003% and the “Fold enhancement in killing” value [2, 19] was 12.6 fold. The Titre [2, 19] was 3.0 × 10^3, the “% Survival” value [2, 20] was 0.5% and the “Fold enhancement in killing” value [2, 20] was 2.3 fold. The Titre [2, 20] was 3.0 × 10^6, the “% Survival” value [2, 21] was 0.11% and the “Fold enhancement in killing” value [2, 21] was 5.2 fold. The Titre [2, 21] was 7.5 × 10^5, the “Enhancement of activity of commonly used antibiotics (rifampicin, tetracycline, nalidixic acid etc)” value ([2]; text summary of Table 4) was “enhanced activity” and the “Fold enhancement in DNA transformation” value [5, 22] was 1.9 fold. The “Titre (transformants)” value [5, 22] was 16.0 10^4, the “Fold enhancement in DNA transformation” value [5, 23] was 2.3 fold and the “Titre (transformants)” value [5, 23] was 20.0 10^4. For the same molecule, the “Phage titer, Pellet” value ([6]; MOI 5) was 7.7 10^7 pfu, the “Phage titer, Supernatant” value ([6]; MOI 5) was 7.7 10^7 pfu and the “Phage titer, Pellet” value ([6]; MOI 10) was 18.0 10^7 pfu. The “Phage titer, Supernatant” value ([6]; MOI 10) was 8.0 10^7 pfu, the “Cfu/ml at 36 h” value ([4]; Clotrimazole 0.5 ug/ml + Niaziridin 10 ug/ml) was 4.5 × 10^5 Cfu/ml and the “Fold enhancement of lethal activity” value ([4]; Clotrimazole 0.5 ug/ml + Niaziridin 10 ug/ml, 36 h) was 5.2 fold. The “Uptake of nutrients like Vitamine B12 through the intestinal gut membrane” value [7] was “able to facilitate the uptake”, the “Enhancement of antimycobacterial activity of rifampicin (Growth Index)” value ([8]; FIG. 1) was “able to enhance” and the “Enhancement of antimycobacterial activity of isoniazid (Growth Index)” value ([8]; FIG. 2) was “able to enhance”. For the same molecule, the “Fold enhancement in DNA transformation” value [9, 22] was 1.9 fold, the “Titre (transformants)” value [9, 22] was 8.30 10^3 and the “Fold enhancement in DNA transformation” value [9, 23] was 5.5 fold. For the same molecule, the “Titre (transformants)” value [9, 23] was 24.0 10^3, the “% Survival” value [3, 24] was 5.25% and the “Folds enhancement in killing” value [3, 24] was 4.7 folds. The Titre [3, 24] was 2.1 × 10^7, the “% Survival” value [3, 25] was 75.0% and the “Folds enhancement in killing” value [3, 25] was 1.2 folds. The Titre [3, 25] was 3.0 × 10^8, the “% Survival” value [3, 14] was 16.75% and the “Folds enhancement in killing” value [3, 14] was 1.9 folds. For the same molecule, the Titre [3, 14] was 6.7 × 10^6, the “% Survival” value [3, 26] was 7.5% and the “Folds enhancement in killing” value [3, 26] was 4.0 folds. The Titre [3, 26] was 3.0 × 10^7.
In the case of `CO[C@H]1/C=C/O[C@@]2(C)Oc3c(C)c(O)c4c(O)c(c(/C=N/N5CCN(C)CC5)c(O)c4c3C2=O)NC(=O)/C(C)=C\C=C\[C@H](C)[C@H](O)[C@@H](C)[C@@H](O)[C@@H](C)[C@H](OC(C)=O)[C@@H]1C` [Rif, rifampicin], the “% Survival” value ([1]; Rif (0.05) alone) was 52.5%, the Titre ([1]; Rif (0.05) alone) was 2.1 × 10^8 and the “% Survival” value ([2]; Table 2, Rif 20 μg/ml alone) was 24.2%. For the same molecule, the Titre ([2]; Table 2, Rif 20 μg/ml alone) was 3.4 × 10^7, the “% Survival” value ([2]; Table 2, Rif 30 μg/ml alone) was 21.4% and the Titre ([2]; Table 2, Rif 30 μg/ml alone) was 3.0 × 10^7. For the same molecule, the “% Survival” value ([2]; Table 3, Rif 20 μg/ml alone) was 40.0%, the Titre ([2]; Table 3, Rif 20 μg/ml alone) was 1.00 × 10^8 and the “% Survival” value ([2]; Table 3, Rif 30 μg/ml alone) was 23.3%. The Titre ([2]; Table 3, Rif 30 μg/ml alone) was 5.81 × 10^7, the “% Survival” value ([2]; Table 4, Rif 20 μg/ml alone) was 0.0136% and the Titre ([2]; Table 4, Rif 20 μg/ml alone) was 1.5 × 10^4. For the same molecule, the “% Survival” value ([2]; Table 4, Rif 30 μg/ml alone) was 0.038%, the Titre ([2]; Table 4, Rif 30 μg/ml alone) was 3.8 × 10^4 and the “% Survival” value ([3]; Rif (0.05) alone) was 32.5%. For the same molecule, the Titre ([3]; Rif (0.05) alone) was 1.3 × 10^7.
With `CN(C)[C@@H]1C(=O)C(C(N)=O)=C(O)[C@@]2(O)C(=O)C3=C(O)c4c(O)cccc4[C@@](C)(O)[C@H]3C[C@@H]12` [Tet, tetracycline, reference compound] the “% Survival” value ([1]; Tet (1.0) alone) was 17.5%, the Titre ([1]; Tet (1.0) alone) was 7.0 × 10^7 and the “% Survival” value ([2]; Table 4, Tet 1 μg/ml alone) was 1.16%. For the same molecule, the Titre ([2]; Table 4, Tet 1 μg/ml alone) was 7.0 × 10^6, the “% Survival” value ([2]; Table 4, Tet 2 μg/ml alone) was 0.58% and the Titre ([2]; Table 4, Tet 2 μg/ml alone) was 3.5 × 10^6. For the same molecule, the “% Survival” value ([3]; Tet (2.0) alone) was 30.0% and the Titre ([3]; Tet (2.0) alone) was 1.2 × 10^8.
In the case of `CCOC(=S)NCc1ccc(OC2OC(C)C(O)C(O)C2O)cc1` (centres unmarked) [niazimicin], the “Hypotensive and bradycardiac effect” value [10] is given as “produced hypotensive and bradycardiac effect”.
For `COC(=S)NCc1ccc(O[C@@H]2O[C@@H](C)[C@H](O)[C@@H](O)[C@H]2O)cc1` [niazinin A], the “Hypotensive and bradycardiac effect” value [10] is given as “produced hypotensive and bradycardiac effect”.
For `O=C(/C=C/C=C/c1ccc2c(c1)OCO2)N1CCCCC1` [piperine], the “Comparative levels and peak concentration of the drugs in the presence of piperine” value [11] is listed as “higher”.
For niaziminin A, the “Hypotensive and bradycardiac effect” value [10] is given as “produced hypotensive and bradycardiac effect”.
For niaziminin B, the “Hypotensive and bradycardiac effect” value [10] is listed as “produced hypotensive and bradycardiac effect”.
In the case of niazinin B, the “Hypotensive and bradycardiac effect” value [10] is given as “produced hypotensive and bradycardiac effect”.

Reference: patent US6858588B2, “Nitrile glycoside useful as a bioenhancer of drugs and nutrients, process of its isolation from moringa oleifera” (Council of Scientific and Industrial Research, priority 2003, dated 2005)
